The text below walks through data of PMC10644346, “Shotgun Kinetic Target-Guided Synthesis Approach Enables the Discovery of Small-Molecule Inhibitors against Pathogenic Free-Living Amoeba Glucokinases” (ACS Infectious Diseases, 2023).

Bounds are passed on as bounds.

One experiment has as its system N. fowleri. Further details: method as in PMID 30783001. The note with it: media containing the glycolytic inhibitor; cited from earlier work.
Experiment [1] addresses T1, NfGlck (Naegleria fowleri glucokinase) (Naegleria fowleri, UniProt A0A384E136). On the set-up: method as in PMID 35604214. The note with it: cited from earlier work; for selectivity over the human variant (HsGlck): NfGlck vs HsGlck; for NfGlck IC50: previously identified NfGlck inhibitors.
Experiment [2] deals with T2, BmGlck (Balamuthia mandrillaris glucokinase) (Balamuthia mandrillaris, UniProt Z9NIO0WF95). On the set-up: method as in PMID 35604214. The note with it: cited from earlier work.
The target of experiment [3] is T3, AcGlck (Acanthamoeba castellanii glucokinase) (Acanthamoeba castellanii, UniProt L8GT25). On the set-up: method as in PMID 35604214. The note with it: cited from earlier work.
Experiment [4] deals with T1, NfGlck (Naegleria fowleri glucokinase). The experiment can be described thus: Glucokinase assay (G6PDH-coupled reaction, absorbance at 340 nm), NfGlck. Format: biochemical. The note with it: for IC50: 10 nM enzyme, 15 min preincubation, pH 7.4, triplicate. The procedure:
(§1) The open reading frames of NfGlck, AcGlck, and BmGlck were cloned into pQE30, transformed into M15(pREP) Escherichia coli (Qiagen, Valencia, CA), and expressed as previously described.[48],[54] Briefly, E. coli M15(pREP4) harboring pQE30 constructs were inoculated and grown to an optical density at 600 nm (OD600) of ∼0.6 prior to induction with 500 μM isopropyl β-D-1-thiogalactopyranoside (IPTG). Protein from bacterial lysate was purified by nickel column chromatography (HisTrap FF; GE Healthcare Life Sciences, Pittsburgh, PA) followed by ion-exchange chromatography (HiTrap Q XL; GE Healthcare Life Sciences, Pittsburgh, PA). Protein was typically stored in 25 mM HEPES–Na (pH 7.4), 150 mM NaCl, and 50% glycerol after protein concentrations were determined by using a Bradford assay with bovine serum albumin (BSA) as a standard.
(§2) Enzyme activities were measured in triplicate using a coupled reaction described previously.[54] In a clear 96-well plate, enzyme (HsGlck, NfGlck, AcGlck, or BmGlck, all at 10 nM) was incubated with potential inhibitors (in DMSO) in their optimized assay buffer for 15 min at room temperature. For HsGlck and NfGlck, the assay buffer contained 50 mM TEA and 3.3 mM MgCl2, pH 7.4. For AcGlck and BmGlck, the assay buffer contained 50 mM Tris-HCl and 3.3 mM MgCl2, pH 8. Substrate buffer (425 μM glucose, 2.5 mM ATP, 1 U/mL G6PDH, and 0.75 mM NADP^+) was added to each well to start the reaction for a total reaction volume of 200 μL. Immediately after addition, absorbance was measured at 340 nm at 15 s intervals for 2 min by using a BioTek Synergy H1 microplate reader (BioTek, Winooski, VT). Dose–response analysis and IC50 values were performed by using Prism 9.0 (GraphPad software, San Diego, CA). As a control, enzyme activity in inhibitor solvent (DMSO) was included in every assay. To solve the mode of inhibition, NfGlck activity was measured with increasing substrate concentrations (0–1.25 mM) of glucose in the presence or absence of different inhibitor concentrations (0–10 μM) in technical triplicates. Data were then analyzed, and statistical analyses were performed by extra sum-of-squares F test to compare two models of inhibition. […] All statistical analyses were performed using Prism 9 software.

For experiment [5], the target named is T2, BmGlck (Balamuthia mandrillaris glucokinase). The experiment in a line: Glucokinase assay (G6PDH-coupled reaction, absorbance at 340 nm), BmGlck. The experiment is classed as biochemical. The note with it: 10 nM enzyme, 15 min preincubation, pH 8, triplicate. The procedure:
as §1, §2

Experiment [6] concerns the target T3, AcGlck (Acanthamoeba castellanii glucokinase). The experiment in a line: Glucokinase assay (G6PDH-coupled reaction, absorbance at 340 nm), AcGlck. The note with it: 10 nM enzyme, 15 min preincubation, pH 8, triplicate. Format: biochemical. The procedure: as §1, §2
Experiment [7] deals with T4, HsGlck (human glucokinase) (Homo sapiens, UniProt P35557).
T4 sequence (P35557 1-465): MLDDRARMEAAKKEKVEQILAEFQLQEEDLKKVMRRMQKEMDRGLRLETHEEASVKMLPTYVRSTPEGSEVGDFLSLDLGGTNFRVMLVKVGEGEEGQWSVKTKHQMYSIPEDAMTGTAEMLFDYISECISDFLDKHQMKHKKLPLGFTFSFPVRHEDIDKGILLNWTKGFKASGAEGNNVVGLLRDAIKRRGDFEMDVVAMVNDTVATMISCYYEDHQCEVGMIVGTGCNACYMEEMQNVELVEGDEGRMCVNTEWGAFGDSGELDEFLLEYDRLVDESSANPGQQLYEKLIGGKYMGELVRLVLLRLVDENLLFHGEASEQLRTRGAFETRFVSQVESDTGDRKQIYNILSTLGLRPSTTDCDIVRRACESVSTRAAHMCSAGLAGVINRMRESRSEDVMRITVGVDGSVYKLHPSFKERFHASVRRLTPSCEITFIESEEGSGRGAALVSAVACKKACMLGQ
The experiment in a line: Glucokinase assay (G6PDH-coupled reaction, absorbance at 340 nm), HsGlck. The note with it: 10 nM enzyme, 15 min preincubation, pH 7.4, triplicate. The experiment is classed as biochemical. The procedure: as §2

T3 sequence (L8GT25 entry or part of it): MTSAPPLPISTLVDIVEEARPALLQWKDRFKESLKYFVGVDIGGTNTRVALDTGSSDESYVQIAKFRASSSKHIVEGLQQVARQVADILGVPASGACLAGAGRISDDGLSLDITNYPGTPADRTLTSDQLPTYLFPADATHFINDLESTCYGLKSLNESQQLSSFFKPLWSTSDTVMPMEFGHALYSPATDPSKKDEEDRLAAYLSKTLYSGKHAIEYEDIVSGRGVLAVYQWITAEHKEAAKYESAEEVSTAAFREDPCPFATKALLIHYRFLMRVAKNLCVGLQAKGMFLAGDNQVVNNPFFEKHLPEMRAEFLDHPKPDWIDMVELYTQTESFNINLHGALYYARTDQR
T1 sequence (A0A384E136 entry or part of it): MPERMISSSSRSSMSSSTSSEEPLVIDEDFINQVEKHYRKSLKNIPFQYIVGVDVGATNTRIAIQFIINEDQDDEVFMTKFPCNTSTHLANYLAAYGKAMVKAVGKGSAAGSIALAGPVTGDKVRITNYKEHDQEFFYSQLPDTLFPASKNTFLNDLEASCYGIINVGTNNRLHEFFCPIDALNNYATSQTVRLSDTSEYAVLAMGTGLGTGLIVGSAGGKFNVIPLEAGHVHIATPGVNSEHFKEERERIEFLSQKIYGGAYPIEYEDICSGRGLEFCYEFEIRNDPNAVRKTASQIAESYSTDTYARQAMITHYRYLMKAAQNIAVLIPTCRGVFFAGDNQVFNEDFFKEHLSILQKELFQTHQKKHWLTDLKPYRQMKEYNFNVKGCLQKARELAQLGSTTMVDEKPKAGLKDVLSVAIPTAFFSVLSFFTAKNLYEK

Regarding `O=C(O)C(=O)CBr` [3-bromopyruvate], the “effect on N. fowleri cellular growth” value in the experiment on N. fowleri is listed as “decrease in cellular growth”.
Regarding `N=C(N)Nc1ccc(-c2ccc(-c3ccc(N=C(N)N)c(Cl)c3)o2)cc1Cl` [MMV688271], in experiment [1], the “selectivity over the human variant (HsGlck)” value is “lacked significant selectivity” and the “NfGlck IC50” value was “submicromolar”. Also, in experiment [2], the “activity against BmGlck” value is reported as “not active”. In experiment [3], the “activity against AcGlck” value was “not active”.
With `O=c1c2ccccc2[se]n1-c1ccccc1` [SID856002, ebselen], in experiment [1], the “selectivity over the human variant (HsGlck)” value is reported as “lacked significant selectivity” and the “NfGlck IC50” value is “submicromolar”.
What is called IC50 is the concentration needed to halve the response being measured. As for `COc1cc(OC)cc(C(=O)NS(=O)(=O)c2ccc(CN3CCN(c4ccccc4)CC3)cc2)c1` [SZ1TA5], the IC50 is above 10 µM in experiment [4], above 10 µM in experiment [5], 11.6 ± 9.2 µM in experiment [6] and above 10 µM in experiment [7].
Consider `O=C(NS(=O)(=O)c1ccc(-c2ccc(C(F)(F)F)cc2)cc1)c1ccc2oc(-c3ccccc3)cc2c1` [SZ16TA41], for which the IC50 in experiment [4] is above 10 µM; in experiment [5] it was 3 ± 0.54 µM; in experiment [6], above 10 µM; in experiment [7], above 10 µM.
As for `Cn1cc(C(=O)NS(=O)(=O)CCN(CSCc2ccccc2)Cc2ccc3c(c2)OCO3)c2cc(-c3ccc(S(C)(=O)=O)cc3)ccc21` [SZ28TA26], the concentration for half-maximal inhibition (IC50) in experiment [4] is above 10 µM; in experiment [5] it was 4.77 ± 1 µM; in experiment [6] it was 4.35 ± 0.31 µM; in experiment [7], above 10 µM.
Regarding `O=C(NS(=O)(=O)CCN(CSCc1ccccc1)Cc1ccc2c(c1)OCO2)c1ccc2c(ccn2Cc2ccc(C(F)(F)F)cc2C(F)(F)F)c1` [SZ28TA30], the IC50 in experiment [4] is above 10 µM; in experiment [5] it was 1.68 ± 0.05 µM; in experiment [6], above 10 µM; in experiment [7] it was above 10 µM.
With `O=C(NS(=O)(=O)CCN(CSCc1ccccc1)Cc1ccc2c(c1)OCO2)c1ccc2oc(-c3ccccc3)cc2c1` [SZ28TA41], the IC50 was above 10 µM in experiment [4], 7.22 ± 0.28 µM in experiment [5], 3.09 ± 0.66 µM in experiment [6] and above 10 µM in experiment [7].
Take `O=C(NS(=O)(=O)c1ccc(-c2ccc3c(c2)OCCO3)cc1)c1ccc2c(ccn2Cc2ccc(C(F)(F)F)cc2C(F)(F)F)c1` [SZ33TA30]: the IC50 in experiment [4] is above 10 µM; in experiment [5], 1.48 ± 0.13 µM; in experiment [6], 4.4 ± 0.4 µM; in experiment [7], above 10 µM.
As to `Cn1cc(C(=O)c2cccs2)c2cc(C(=O)NS(=O)(=O)c3ccc(-c4ccc5c(c4)OCCO5)cc3)ccc21` [SZ33TA45], the IC50 in experiment [4] is 10.9 ± 2 µM; in experiment [5], above 10 µM; in experiment [6], above 10 µM; in experiment [7] it was 10.6 ± 0.45 µM.
On to `CCOc1ccc(-c2ccc3c(c2)c(C(=O)NS(=O)(=O)c2ccc(-c4ccc(Oc5ccccc5)cc4)cc2)cn3C)cc1F` [SZ35TA23], for which the IC50 in experiment [4] was above 10 µM; in experiment [5] it was above 10 µM; in experiment [6] it was 6.9 µM; in experiment [7] it was above 10 µM.
As to `O=C(NS(=O)(=O)c1ccc(-c2ccc(Oc3ccccc3)cc2)cc1)c1ccc2c(ccn2Cc2ccc(C(F)(F)F)cc2C(F)(F)F)c1` [SZ35TA30], the IC50 worked out at 1.9 ± 1.1 µM in experiment [4], 0.33 ± 0.05 µM in experiment [5], 0.21 ± 0.04 µM in experiment [6] and 8.5 ± 0.37 µM in experiment [7]. The “selectivity for NfGlck over HsGlck” value in experiment [4] (NfGlck vs HsGlck IC50) is recorded as “slight selectivity”.
With `O=C(NS(=O)(=O)c1ccc(-c2ccc(Oc3ccccc3)cc2)cc1)c1ccc2oc(-c3ccccc3)cc2c1` [SZ35TA41], the IC50 is above 10 µM in experiment [4], 1.19 ± 0.29 µM in experiment [5], 1.6 ± 0.1 µM in experiment [6] and above 10 µM in experiment [7].
`Cn1cc(C(=O)c2cccs2)c2cc(C(=O)NS(=O)(=O)c3ccc(-c4ccc(Oc5ccccc5)cc4)cc3)ccc21` [SZ35TA45]: the IC50 is above 10 µM in experiment [4], 1.92 ± 0.13 µM in experiment [5], 3.3 ± 1.3 µM in experiment [6] and above 10 µM in experiment [7].
Take `COc1ccccc1-c1ccc(C(=O)NS(=O)(=O)c2ccc(-c3cc4ccccc4s3)cc2)cc1` [SZ37TA21]: the IC50 in experiment [4] was above 10 µM; in experiment [5], 4.83 ± 0.76 µM; in experiment [6] it was 5.1 ± 0.5 µM; in experiment [7], above 10 µM.
